The values that follow come from patent US7211587B2, “Quinoline derivatives and quinazoline derivatives having azolyl group” (Kirin Beer Kabushiki Kaisha, priority 2001, dated 2007).

Counter-ions that a name gives are not always drawn. Bounds are passed on as bounds.

Experiment [1] has as its target T1, human KDR (Homo sapiens, UniProt P35968).
T1 construct: expressed in transfected cells; host or cells: NIH 3T3 cells (mouse fibroblasts) stably expressing human KDR
Kind of experiment: Inhibitory activity against KDR phosphorylation by ELISA (VEGF-stimulated NIH 3T3 cells expressing human KDR). The conditions noted are these: VEGF 100 ng/ml, compound 1 hr, read-out: IC50 (inhibition of KDR phosphorylation). The class given is cell-based. The procedure:
The harvested cells were inoculated into wells of a collagen-type one-coat 96-well flat-bottom plate, each containing the same medium, in an amount of 1.5×10^4 per well, followed by cultivation at 37° C. overnight. The medium was then replaced by a DMEM medium containing 0.1% fetal calf serum. A solution of a test compound in dimethyl sulfoxide was added to each well, and the cultivation was continued at 37° C. for additional one hr. A human recombinant vascular endothelial growth factor (hereinafter abbreviated to “VEGF”) was added to a final concentration of 100 ng/ml, and the stimulation of cells was carried out at 37° C. for 2 min. The medium was removed, the cells were washed with phosphate buffered saline (pH 7.4), and 50 μl of a solubilization buffer (20 mM HEPES (pH 7.4), 150 mM NaCl, 0.2% Triton X-100, 10% glycerol, 5 mM sodium orthovanadylate, 5 mM disodium ethylenediaminetetraacetate, and 2 mM Na4P2O7) was then added thereto. The mixture was shaken at 4° C. for 2 hr to prepare a cell extract.
Separately, phosphate buffered saline (50 μl, pH 7.4) containing 5 μg/ml of an anti-phospho-tyrosine antibody (PY20; purchased from Transduction Laboratories) was added to a microplate for ELISA (Maxisorp; purchased from NUNC), followed by standing at 4° C. overnight to form a solid phase on the wells. After washing of the plate, 300 μl of a blocking solution was added, followed by standing at room temperature for 2 hr to perform blocking. After washing, the whole quantity of the cell extract was transferred to the wells, and the plate was then allowed to stand at 4° C. overnight. After washing, an anti-KDR antibody (purchased from Santa Cruz) was allowed to react at room temperature for one hr, and, after washing, a peroxidase-labeled anti-rabbit Ig antibody (purchased from Amersham) was allowed to react at room temperature for one hr. After washing, a chromophoric substrate for peroxidase (purchased from Sumitomo Bakelite Co., Ltd.) was added thereto to initiate a reaction. After a suitable level of color development, a reaction termination solution was added to stop the reaction, and the absorbance at 450 nm was measured with a microplate reader. The KDR phosphorylation activity for each well was determined by presuming the absorbance with the addition of VEGF and without the addition of the medicament to be 100% KDR phosphorylation activity and the absorbance without the addition of the medicament and VEGF to be 0% KDR phosphorylation activity.
A general note: An ELISA detects its analyte on a solid surface through an enzyme-linked reagent.

Experiment [2] concerns Human pulmonary carcinoma cells (LC-6). In words: Antitumor activity against human pulmonary carcinoma cells (LC-6) transplanted into nude mice. The class given is in vivo. The following applies: LC-6 in nude mice, oral 20 mg/kg once a day for 9 days; for inhibition in vivo at 20 mg/kg: Mus musculus, 216 h, read-out: TGIR (tumor growth inhibition rate). The procedure:
Human pulmonary carcinoma cells (LC-6) (obtained from Central Laboratories for Experimental Animals) were transplanted into nude mice. When the tumor volume became about 100 mm^3, the mice were grouped so that each group consisted of four mice and the average tumor volume was even among the groups. A test compound was orally administered at a dose of 20 mg/kg to the test groups every day once a day for 9 days, while only a vehicle was administered to a control group in the manner as in the test groups. The tumor growth inhibition rate (TGIR) was calculated as follows: The tumor growth inhibition rate (TGIR)=(1−TX/CX)×100 wherein CX represents the volume of tumor at day X for the control group when the tumor volume at the first day of the administration was presumed to be 1; and TX represents the tumor volume for test compound administration groups.

T1 sequence (P35968 20-1356): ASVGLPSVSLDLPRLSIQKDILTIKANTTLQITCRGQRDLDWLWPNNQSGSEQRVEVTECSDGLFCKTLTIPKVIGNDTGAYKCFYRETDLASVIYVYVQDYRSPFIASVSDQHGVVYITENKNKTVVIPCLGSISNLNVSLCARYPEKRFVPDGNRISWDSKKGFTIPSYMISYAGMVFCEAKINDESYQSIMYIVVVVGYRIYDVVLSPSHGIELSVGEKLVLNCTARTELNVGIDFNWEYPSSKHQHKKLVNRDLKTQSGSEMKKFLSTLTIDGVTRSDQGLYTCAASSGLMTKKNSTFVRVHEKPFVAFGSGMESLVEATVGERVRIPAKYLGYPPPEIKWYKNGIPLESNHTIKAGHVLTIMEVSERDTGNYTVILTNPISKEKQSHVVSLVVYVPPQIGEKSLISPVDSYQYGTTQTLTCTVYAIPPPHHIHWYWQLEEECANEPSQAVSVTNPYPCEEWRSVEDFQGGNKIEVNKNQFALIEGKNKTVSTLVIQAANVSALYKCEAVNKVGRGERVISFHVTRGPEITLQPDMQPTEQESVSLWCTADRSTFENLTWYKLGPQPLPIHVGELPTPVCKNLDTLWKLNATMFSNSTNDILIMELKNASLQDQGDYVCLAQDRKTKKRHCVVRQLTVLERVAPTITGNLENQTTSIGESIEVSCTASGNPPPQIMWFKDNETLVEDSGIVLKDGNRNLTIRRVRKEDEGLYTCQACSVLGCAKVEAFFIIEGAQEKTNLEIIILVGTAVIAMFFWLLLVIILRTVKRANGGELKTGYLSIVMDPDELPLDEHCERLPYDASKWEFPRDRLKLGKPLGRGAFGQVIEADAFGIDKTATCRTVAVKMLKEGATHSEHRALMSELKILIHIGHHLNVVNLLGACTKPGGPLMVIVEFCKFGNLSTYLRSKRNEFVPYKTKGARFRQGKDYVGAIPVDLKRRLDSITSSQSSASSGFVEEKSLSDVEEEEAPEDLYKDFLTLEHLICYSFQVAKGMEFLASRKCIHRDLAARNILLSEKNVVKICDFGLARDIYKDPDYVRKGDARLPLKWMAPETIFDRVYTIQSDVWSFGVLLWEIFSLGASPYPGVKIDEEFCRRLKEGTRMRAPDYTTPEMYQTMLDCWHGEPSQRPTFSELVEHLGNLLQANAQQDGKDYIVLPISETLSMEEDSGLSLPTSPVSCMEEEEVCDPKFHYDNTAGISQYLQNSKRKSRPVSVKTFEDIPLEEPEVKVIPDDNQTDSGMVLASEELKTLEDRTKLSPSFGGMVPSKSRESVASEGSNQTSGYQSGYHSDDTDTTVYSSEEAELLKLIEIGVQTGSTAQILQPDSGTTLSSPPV

In the case of `COc1cc2nccc(Oc3ccc(NC(=O)Nc4cc(C)no4)c(Cl)c3)c2cc1OC` [Ex. 5, N-{2-Cloro-4-[(6,7-dimethoxy-4-quinolyl)oxy]phenyl}-N′-(3-methyl-5-isoxazolyl)urea], the IC50 in experiment [1] is < 1 nM. In experiment [2], the “TGIR (tumor growth inhibition rate)” value was determined as 29.5%.

With `COc1cc2nccc(Oc3ccc(NC(=O)Nc4cc(C)no4)c(F)c3)c2cc1OC` [Ex. 6, N-{4-[(6,7-Dimethoxy-4-quinolyl)oxy]-2-fluorophenyl}-N′-(3-methyl-5-isoxazolyl)urea], the IC50 in experiment [1] is < 1 nM. Besides, in experiment [2], the inhibition in vivo at 20 mg/kg was 29.3%.

Take `COc1cc2nccc(Oc3ccc(NC(=O)Nc4nnc(C)s4)c(F)c3)c2cc1OC` [Ex. 58, N-{4-[(6,7-Dimethoxy-4-quinolyl)oxy]-2-fluorophenyl}-N′-(5-methyl-1,3,4-thiadiazol-2-yl)urea]: the IC50 in experiment [1] was found to be 36 nM. Further, in experiment [2], the inhibition in vivo at 20 mg/kg was found to be 13.4%.

Turning to `COc1cc2nccc(Oc3ccc(NC(=O)Nc4nc(C)c(C)s4)c(Cl)c3)c2cc1OC` [Ex. 24, N-{2-Chloro-4-[(6,7-dimethoxy-4-quinolyl)oxy]phenyl}-N′-(4,5-dimethyl-1,3-thiazol-2-yl)urea], the IC50 in experiment [1] is 1 nM. For the same compound, the inhibition in vivo at 20 mg/kg in experiment [2] turned out to be 39.8%.

`COc1cc2nccc(Oc3ccc(NC(=O)Nc4nnc(C(F)(F)F)s4)c(F)c3)c2cc1OC` [Ex. 51, N-{4-[(6,7-Dimethoxy-4-quinolyl)oxy]-2-fluorophenyl}-N′-[5-(trifluoromethyl)-1,3,4-thiadiazol-2-yl]urea]: the IC50 in experiment [1] was 3.7 nM. In addition, in experiment [2], the inhibition in vivo at 20 mg/kg was 45.6%.

On to `COc1cc2nccc(Oc3ccc(NC(=O)Nc4ccon4)cc3F)c2cc1OC` [Ex. 3, N-{4-[(6,7-Dimethoxy-4-quinolyl)oxy]-3-fluorophenyl}-N′-(3-isoxazolyl)urea], for which the IC50 in experiment [1] is < 1 nM. Besides, in experiment [2], the inhibition in vivo at 20 mg/kg turned out to be 39.5%.

For `CCOC(=O)Cc1csc(NC(=O)Nc2ccc(Oc3ccnc4cc(OC)c(OC)cc34)cc2F)n1` [Ex. 29, Ethyl 2-{2-[({4-[(6,7-dimethoxy-4-quinolyl)oxy]-2-fluoroanilino}carbonyl)amino]-1,3-thiazol-4-yl}acetate], the IC50 in experiment [1] was found to be 49.4 nM. For the same compound, the inhibition in vivo at 20 mg/kg in experiment [2] stood at 66.1%.

Consider `COc1cc2nccc(Oc3ccc(NC(=O)Nc4nc(C)c(C)s4)c(F)c3)c2cc1OC` [Ex. 23, N-{4-[(6,7-Dimethoxy-4-quinolyl)oxy]-2-fluorophenyl}-N′-(4,5-dimethyl-1,3-thiazol-2-yl)urea], for which the IC50 in experiment [1] was < 1 nM. The inhibition in vivo at 20 mg/kg in experiment [2] was found to be 51.7%.

On to `COc1cc2nccc(Oc3ccc(NC(=O)Nc4nnc(C(F)(F)F)s4)cc3)c2cc1OC` [Ex. 50, N-{4-[(6,7-Dimethoxy-4-quinolyl)oxy]phenyl}-N′-[5-(trifluoromethyl)-1,3,4-thiadiazol-2-yl]urea], for which the IC50 in experiment [1] came to 6.3 nM. Moreover, the inhibition in vivo at 20 mg/kg in experiment [2] is 11.9%.

On to `COc1cc2nccc(Oc3ccc(NC(=O)Nc4nnc(C(F)(F)F)s4)cc3F)c2cc1OC` [Ex. 52, N-{4-[(6,7-Dimethoxy-4-quinolyl)oxy]-3-fluorophenyl}-N′-[5-(trifluoromethyl)-1,3,4-thiadiazol-2-yl]urea], for which the IC50 in experiment [1] came out at 13 nM. In experiment [2], the inhibition in vivo at 20 mg/kg stood at 20.7%.

In the case of `COc1cc2nccc(Oc3ccc(NC(=O)Nc4nc(C)cs4)c(Cl)c3)c2cc1OC` [Ex. 22, N-{2-Chloro-4-[(6,7-dimethoxy-4-quinolyl)oxy]phenyl}-N′-(4-methyl-1,3-thiazol-2-yl)urea], the IC50 in experiment [1] was < 1 nM. Further, in experiment [2], the inhibition in vivo at 20 mg/kg was found to be 43.8%.

For the compound `COc1cc2nccc(Oc3ccc(NC(=O)Nc4ncc(C)s4)c(F)c3)c2cc1OC` [Ex. 21, N-{4-[(6,7-Dimethoxy-4-quinolyl)oxy]-2-fluorophenyl}-N′-(5-methyl-1.3-thiazol-2-yl)urea hydrochloride], in experiment [1], the IC50 amounted to 0.4 nM. Also, the inhibition in vivo at 20 mg/kg in experiment [2] is 66.6%.

As to `COc1cc2nccc(Oc3ccc(NC(=O)Nc4cc(C)on4)c(F)c3)c2cc1OC` [Ex. 9, N-{4-[(6,7-Dimethoxy-4-quinolyl)oxy]-2-fluorophenyl}-N′-(5-methyl-3-isoxazolyl)urea], in experiment [1], the IC50 was 0.2 nM. The inhibition in vivo at 20 mg/kg in experiment [2] came out at 63.5%.

For the compound `COc1cc2ncnc(Oc3ccc(NC(=O)Nc4cc(C)on4)cc3Cl)c2cc1OC` [Ex. 14, N-{3-Chloro-4-[(6,7-dimethoxy-4-quinazolinyl)oxy]phenyl}-N′-(5-methyl-3-isoxazolyl)urea], in experiment [1], the IC50 came to 4.4 nM.

Consider `COc1cc2ncnc(Oc3ccc(NC(=O)Nc4cc(C)on4)c(Cl)c3)c2cc1OC` [Ex. 12, N-{2-Chloro-4-[(6,7-dimethoxy-4-quinazolinyl)oxy]phenyl}-N′-(5-methyl-3-isoxazolyl)urea], for which the IC50 in experiment [1] is < 1 nM.

On to `CCc1nnc(NC(=O)Nc2ccc(Oc3ccnc4cc(OC)c(OC)cc34)c(F)c2)s1` [Ex. 64, N-{4-[(6,7-Dimethoxy-4-quinolyl)oxy]-3-fluorophenyl}-N′-(5-ethyl-1,3,4-thiadiazol-2-yl)urea], for which the IC50 in experiment [1] is 1.5 nM.

For `COc1cc2nccc(Oc3ccc(NC(=O)Nc4nnc(C(C)(C)C)s4)c(F)c3)c2cc1OC` [Ex. 74, N-[5-(Tert-butyl)-1,3,4-thiadiazol-2-yl]-N′-{4-[(6,7-dimethoxy-4-quinolyl)oxy]-2-fluorophenyl}urea], the IC50 in experiment [1] was determined as 3 nM.

`COc1cc2ncnc(Oc3ccc(NC(=O)Nc4cc(C)no4)cc3Cl)c2cc1OC` [Ex. 15, N-{3-Chloro-4-[(6,7-dimethoxy-4-quinazolinyl)oxy]phenyl}-N′-(3-methyl-5-isoxazolyl)urea]: the 50% inhibitory concentration (IC50) in experiment [1] amounted to 13.4 nM.

For the compound `COc1cc2nccc(Oc3ccc(NC(=O)Nc4nc(C)c(C)s4)c(C(F)(F)F)c3)c2cc1OC` [Ex. 26, N-[4-[(6,7-Dimethoxy-4-quinolyl)oxy]-2-(trifluoromethyl)phenyl]-N′-(4,5-dimethyl-1,3-thiazol-2-yl)urea], the IC50 in experiment [1] was 5 nM.

With `CCc1nnc(NC(=O)Nc2ccc(Oc3ccnc4cc(OC)c(OC)cc34)cc2C)s1` [Ex. 60, N-{4-[(6,7-Dimethoxy-4-quinolyl)oxy]-2-methylphenyl}-N′-(5-ethyl-1,3,4-thiadiazol-2-yl)urea], in experiment [1], the IC50 is < 1 nM.

Consider `CCc1nnc(NC(=O)Nc2ccc(Oc3ccnc4cc(OC)c(OC)cc34)cc2F)s1` [Ex. 63, N-{4-[(6,7-Dimethoxy-4-quinolyl)oxy]-2-fluorophenyl}-N′-(5-ethyl-1,3,4-thiadiazol-2-yl)urea], for which the IC50 in experiment [1] was < 1 nM.

Regarding `COc1cc2nccc(Oc3ccc(NC(=O)Nc4nnc(C5CC5)s4)c(Cl)c3)c2cc1OC` [Ex. 67, N-{2-Chloro-4-[(6,7-dimethoxy-4-quinolyl)oxy]phenyl}-N′-(5-cyclopropyl-1,3,4-thiadiazol-2-yl)urea], the IC50 in experiment [1] was found to be 2.4 nM.

Take `COc1cc2ncnc(Oc3ccc(NC(=O)Nc4nc(C)c(C)s4)cc3)c2cc1OC` [Ex. 45, N-{4-[(6,7-Dimethoxy-4-quinazolinyl)oxy]-phenyl}-N′-(4,5-dimethyl-1,3-thiazol-2-yl)urea]: in experiment [1], the IC50 was < 1 nM.

As to `CCc1nnc(NC(=O)Nc2ccc(Oc3ccnc4cc(OC)c(OC)cc34)cc2Cl)s1` [Ex. 65, N-{2-Chloro-4-[(6,7-dimethoxy-4-quinolyl)oxy]phenyl}-N′-(5-ethyl-1,3,4-thiadiazol-2-yl)urea], the IC50 in experiment [1] is < 1 nM.

`COc1cc2nccc(Oc3ccc(NC(=O)Nc4nc(C(C)(C)C)cs4)c(F)c3)c2cc1OC` [Ex. 30, N-[4-(Tert-butyl)-1,3-thiazol-2-yl]-N′-{4-[(6,7-dimethoxy-4-quinolyl)oxy]-2-fluorophenyl}urea]: the IC50 in experiment [1] stood at 28.6 nM.

On to `COc1cc2ncnc(Oc3ccc(NC(=O)Nc4nc(C)cs4)cc3Cl)c2cc1OC` [Ex. 48, N-{3-Chloro-4-[(6,7-dimethoxy-4-quinazolinyl)oxy]phenyl}-N′-(4-methyl-1,3-thiazol-2-yl)urea], for which the IC50 in experiment [1] came to 4.4 nM.

As usually defined, the IC50 is the midpoint of a concentration-inhibition curve.
